Reference: patent publication US12503453B2, “USP7 inhibition” (Dana-Farber Cancer Institute, Inc., priority 2018, dated 2025)

Tests used:
DUBs in HEK293AD lysate = DUBs in HEK293AD lysate (Homo sapiens, UniProt Q93009); assay: In situ DUB profiling, competitive ABPP with Bio-Ub-PA/VME and quantitative MS; format: binding; details: HEK293 crude cell extract, 5 hours pre-incubation
Experimental: DUB profiling was performed using conditions similar to those in Lawson, A. P. et al. Identification of deubiquitinase targets of isothiocyanates using SILAC-assisted quantitative mass spectrometry. Oncotarget 5, (2017). HEK 293AD cells were lysed using target engagement lysis buffer (50 mM Tris pH 8.0, 150 mM NaCl, 5 mM MgCl2, 0.5 mM EDTA, 0.5% NP-40, 10% glycerol, 1 mM TCEP, protease and phosphatase inhibitors), and the lysate was cleared by centrifugation. […] Excess inhibitor was removed using a 30K Amicon spin filter, then the resulting lysate was incubated with 1 μM each of Biotin-Ub-PA and Biotin-Ub-VME for 90 minutes at RT. SDS was added to a final concentration of 1.2%, and samples were heated to 80° C. for 5 minutes. After cooling to RT, 1×PBS was added to dilute the final SDS concentration to 0.2%. […]
Streptavidin beads were resuspended in 95 μL 100 mM Tris pH 8.0. […] Eluted peptides were then analyzed by nanoLC-MS as described (Ficarro, S. B. et al. Improved electrospray ionization efficiency compensates for diminished chromatographic resolution and enables proteomics analysis of tyrosine signaling in embryonic stem cells. Anal. Chem. 81, 3440-3447 (2009)) with a NanoAcquity UPLC system (Waters, Milford, MA) interfaced to a QExactive HF mass spectrometer (Thermofisher Scientific, San Jose, CA). […]

full length USP7 = full length USP7 (Homo sapiens (Human), UniProt Q93009); assay: Ub-AMC enzymatic assay with full-length USP7; format: biochemical; details: full-length USP7, Ub-AMC
Chain of full length USP7 (Q93009 whole entry): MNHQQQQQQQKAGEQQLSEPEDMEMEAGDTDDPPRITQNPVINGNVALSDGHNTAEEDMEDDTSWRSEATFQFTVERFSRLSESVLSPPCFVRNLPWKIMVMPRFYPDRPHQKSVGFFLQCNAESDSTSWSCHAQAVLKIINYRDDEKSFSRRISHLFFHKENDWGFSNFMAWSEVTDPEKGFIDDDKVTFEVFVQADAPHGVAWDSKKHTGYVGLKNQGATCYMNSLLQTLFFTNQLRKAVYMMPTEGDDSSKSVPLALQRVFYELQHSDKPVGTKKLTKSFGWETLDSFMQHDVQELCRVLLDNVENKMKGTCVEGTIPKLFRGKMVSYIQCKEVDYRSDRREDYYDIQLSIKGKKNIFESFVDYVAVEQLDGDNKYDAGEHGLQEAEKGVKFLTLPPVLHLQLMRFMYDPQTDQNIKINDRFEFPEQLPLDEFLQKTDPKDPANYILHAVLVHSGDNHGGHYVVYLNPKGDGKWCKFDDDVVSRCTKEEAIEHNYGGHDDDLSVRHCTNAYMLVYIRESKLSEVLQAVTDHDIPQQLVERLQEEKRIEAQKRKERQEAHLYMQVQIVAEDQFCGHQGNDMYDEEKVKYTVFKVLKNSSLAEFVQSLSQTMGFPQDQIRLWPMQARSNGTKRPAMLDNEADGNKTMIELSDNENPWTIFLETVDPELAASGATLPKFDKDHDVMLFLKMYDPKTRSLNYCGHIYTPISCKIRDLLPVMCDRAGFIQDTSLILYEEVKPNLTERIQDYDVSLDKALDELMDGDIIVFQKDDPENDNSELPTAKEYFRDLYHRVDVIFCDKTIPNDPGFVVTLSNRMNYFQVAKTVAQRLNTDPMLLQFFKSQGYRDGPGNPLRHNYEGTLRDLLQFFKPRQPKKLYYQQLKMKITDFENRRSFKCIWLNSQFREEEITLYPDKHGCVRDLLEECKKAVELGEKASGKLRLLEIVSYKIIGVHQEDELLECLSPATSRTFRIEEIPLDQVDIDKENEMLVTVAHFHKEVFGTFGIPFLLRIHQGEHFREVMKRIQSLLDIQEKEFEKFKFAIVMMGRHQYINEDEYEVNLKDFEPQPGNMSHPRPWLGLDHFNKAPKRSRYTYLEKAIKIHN
Experimental: Both constructs were overexpressed in E. coli BL21 (DE3). Cells were grown at 37° C. to an OD of 0.9, cooled to 16° C., induced with 500 μM isopropyl-1-thio-D-galactopyranoside (IPTG), incubated overnight at 16° C., collected by centrifugation, and stored at −80° C. Cell pellets were sonicated in lysis buffer (25 mM Tris pH 8, 1 M NaCl, and 10 mM BME) supplemented with 10 μg/ml phenylmethanesulfonylfluoride (PMSF) and the resulting lysate was centrifuged at 30,000×g for 40 min. Ni-NTA beads (Qiagen) were mixed with lysate supernatant for 2 hours, and washed with lysis buffer supplemented with 25 mM imidazole. The bound protein was eluted with lysis buffer supplemented with 300 mM imidazole. The sample was then concentrated to 1 ml (30 kDa concentrator; Amicon Ultra, Millipore), and run on a Superdex 200 (GE healthcare) in buffer containing 25 mM HEPES pH 7.5, 200 mM NaCl, and 1 mM DTT. Fractions were pooled, concentrated and frozen at −80° C.
Full length USP7 was tested for its activity in Ubiquitin-AMC assay in presence or absence of inhibitors. USP7 (5 nM) was pre-incubated for 6 hours at room temperature with different concentrations of inhibitors or DMSO as a control in 50 mM HEPES pH 7.5, 0.5 mM EDTA, 11 μM ovalbumin, and 5 mM DTT. Ubiquitin-AMC (Boston Biochem) was then added to a final concentration of 500 nM. The initial rate of the reaction was measured by collecting fluorescence data at one minute intervals over 30-minute period using a Clariostar fluorescence plate reader at excitation and emission wavelength of 345 and 445 nm respectively. The calculated initial rate values were plotted against inhibitor concentrations to determine IC50s. All the experimental data were plotted using Prism GraphPad. All assays for each compound were performed at least twice for each compound.

- blocking of USP7 labeling by DUB ABPs (DUBs in HEK293AD lysate): significantly blocked USP7 labeling
- IC50 against USP7 (range in words) (full length USP7): subnanomolar range
SMILES: CN1CCN(CCC(=O)Nc2ccc3c(=O)n(CC4(O)CCN(C(=O)[C@@H](CCCNC(=O)c5ccc6c(Cl)c7c(nc6c5)CCCC7)Cc5ccccc5)CC4)cnc3c2)CC1 [compound 6, (S)—N-(4-benzyl-5-(4-hydroxy-4-((7-(3-(4-methylpiperazin-1-yl)propanamido)-4-oxoquinazolin-3(4H)-yl)methyl)piperidin-1-yl)-5-oxopentyl)-9-chloro-5,6,7,8-tetrahydroacridine-3-carboxamide]
